Results taken from US5808100A, “Chromene compounds and photochromic materials” (Tokuyama Corporation, priority 1995, dated 1998).

Experiments:
[1] = Durability T1/2 by xenon fadometer FAC-25AX-HC; type: physicochemical; conditions: in polymer
Method: (§1) 0.05 Parts of the chromene compound obtained in Example 1 was added to 70 parts of a tetraethylene glycol dimethacrylate, 15 parts of a triethylene glycol dimethacrylate, 10 parts of a glycidyl methacrylate and 5 parts of a 2-hydroethyl methacrylate, and was mixed to a sufficient degree. The mixture solution was poured into a mold constituted by a glass plate and a gasket made from an ethylene/vinyl acetate copolymer and then polymerized. The polymerization was conducted by using an air furnace while gradually raising the temperature up to 30° C. to 90° C. over a period of 18 hours, the temperature being maintained at 90° C. for two hours. After the polymerization, the polymer was taken out from the glass mold.
(§2) Color fading rate [t1/2 ]: Time required by the polymer irradiated for 120 seconds until the absorbancy decreases down to one-half of [ε(120)-ε(0)]. Durability [T1/2 ]: Time required until the absorbency at the maximum absorption wavelength decreases down to 1/2 of the initial absorbency as measured by using a xenon fadometer FAC-25AX-HC manufactured by Suga Shikenki Co.
(§3) The photochromic polymers were obtained in the same manner as described above but using the compounds obtained in Examples 2 to 33 as chromene compounds. For the purpose of comparison, properties of the compounds represented by the following formulas (A), (B), (D) and (E) were also shown in Table 3. [drawing 110]

[2] = Photochromic properties of polymer (2 mm thick) containing the chromene compound, xenon lamp irradiation 120 seconds; type: physicochemical; design: key to Color density ε(120)-ε(0): absorbance at λmax after 120 s irradiation minus before, ε(120)-ε(0); conditions: for Color density ε(120)-ε(0): 120 seconds irradiation, 20° C.±1° C.; for Color density ε(120)-ε(0) / ε(0): absorbancy of the polymer not irradiated (initial color): at λmax; for Color fading rate t1/2: time until absorbancy decreases to one-half of [ε(120)-ε(0)]: after 120 seconds irradiation; for Maximum absorption wavelength λMax (developed color tone): polymer after developing color
Method: as §1
The obtained polymer (2 mm thick) was irradiated with light from a xenon lamp L-2480 (300 W) SHL-100 manufactured by Hamamatsu Photonics Co. through an Aero Mass filter (manufactured by Corning Co.) for 120 seconds under the conditions of 20° C.±1° C., beam intensities of 365 nm=2.4 mW/cm^2 and […]=24 μW/cm^2 on the polymer surface to develop color and to measure photochromic properties. The photochromic properties were expressed as described below.
Maximum absorption wavelength (λmax): λmax of the polymer after it has developed color was found by using a spectrophotometer (instantaneous multi-channel photodetector MCPD1000) manufactured by Otsuka Denshi Kogyo Co.
ε(120): Absorbancy of the polymer using light of a maximum absorption wavelength after it was irradiated under the above-mentioned conditions for 120 seconds.
ε(0): Absorbancy of the polymer that has not been irradiated using light of a wavelength same as the maximum absorption wavelength of light with which the polymer was irradiated.
ε(120)-ε(0): Color density
as §2, §3

SMILES | Durability T1/2: time until absorbancy at maximum absorption wavelength decreases to 1/2 of the initial [1] | Color density ε(120)-ε(0) [2] | Color fading rate t1/2: time until absorbancy decreases to one-half of [ε(120)-ε(0)] [2] | ε(0): absorbancy of the polymer not irradiated (initial color) [2] | Maximum absorption wavelength λMax (developed color tone) [2]
C1=CC(c2ccc3ccccc3c2)(c2ccco2)Oc2ccc3ccccc3c21 (stereo not shown) [Compound 4] | 490 h | 1.10 | 0.983 min | 0.07 | 486 nm
Cn1cccc1C1(c2ccc3ccccc3c2)C=Cc2c(ccc3ccccc23)O1 (stereo not shown) [Compound 8] | 440 h | 1.00 | 1 min | 0.06 | 486 nm
C1=CC(c2ccccc2)(c2ccccc2)Oc2ccc3ccccc3c21 [A, reference compound] | 460 h | 0.52 | 0.667 min | 0.04 | 436 nm
COc1ccc2ccc3c(c2c1)C=CC(c1ccco1)(c1coc2ccccc12)O3 (stereo not shown) [Compound 14] | 480 h | 1.06 | 1 min | 0.07 | 484 nm
C1=CC(c2ccc3ccccc3c2)(c2nccs2)Oc2ccc3ccccc3c21 (stereo not shown) [Compound 16] | 485 h | 1.09 | 0.7 min | 0.06 | 466 nm
COc1ccc2c3c(ccc2c1)OC(c1ccc2ccccc2c1)(c1cnco1)C=C3 (stereo not shown) [Compound 11] | 490 h | 1.36 | 1.23 min | 0.05 | 476 nm
C1=CC(c2ncco2)(c2csc3ccccc23)Oc2ccc3cc(Cc4ccccc4)ccc3c21 (stereo not shown) [Compound 13] | 490 h | 1.02 | 1.03 min | 0.07 | 480 nm

The next lines start with the values.

Durability T1/2: time until absorbancy at maximum absorption wavelength decreases to 1/2 of the initial [1] | Color density ε(120)-ε(0) [2] | Color fading rate t1/2: time until absorbancy decreases to one-half of [ε(120)-ε(0)] [2] | ε(0): absorbancy of the polymer not irradiated (initial color) [2] | Maximum absorption wavelength λMax (developed color tone) [2] | SMILES
540 h | 1.23 | 0.983 min | 0.06 | 492 nm | C1=CC(c2ccco2)(c2cc3ccccc3o2)Oc2ccc3ccccc3c21 (stereo not shown) [Compound 25]
490 h | 1.44 | 1.33 min | 0.06 | 480 nm | Fc1c(C2(c3ccco3)C=Cc3c(ccc4ccccc34)O2)ccc2ccccc12 (stereo not shown) [Compound 31]
495 h | 1.18 | 1.17 min | 0.04 | 450 nm | Fc1c(C2(c3ccsc3)C=Cc3c(ccc4ccccc34)O2)ccc2ccccc12 (stereo not shown) [Compound 30]
470 h | 1.35 | 1.17 min | 0.05 | 450 nm | CC(C)(C)Oc1ccc2ccc3c(c2c1)C=CC(c1cccs1)(c1ccc2ccccc2c1Cl)O3 (stereo not shown) [Compound 21]
